# Experimental data from PubChem BioAssay AID2060503 (Molecular Pharmacology Branch, DTP, NCI, 2025).
# Tested on: 817829-284-R-J1-PDC complex spheroids, viability
# Assay: Anticancer human tumor 817829-284-R-J1-PDC patient-derived colon adenocarcinoma cell line growth inhibition [GQUAD]
# Details: for IC50: curve of first compound; for viability, T/C: stronger effect = lower value
# In short: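 Tumor cells were grown as complex spheroids with HUVEC endothelial cells and mesenchymal stem cells as stroma. G-quadruplex stabilizers were combined with targeted agents over half-log dilutions from near the clinical Cmax, or from 10 microM.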
# [1] = second compound 0.0316 µM, first compound 0.0316 µM
# [2] = second compound 0.0316 µM, first compound 0.1 µM
# [3] = second compound 0.0316 µM, first compound 0.316 µM
# [4] = second compound 0.0316 µM, first compound 1 µM
# [5] = second compound 0.0316 µM, first compound 3.16 µM
# [6] = second compound 0.0316 µM, first compound 10 µM
# [7] = second compound 0.1 µM, first compound 0.0316 µM
# [8] = second compound 0.1 µM, first compound 0.1 µM
# [9] = second compound 0.1 µM, first compound 0.316 µM
# [10] = second compound 0.1 µM, first compound 1 µM
# [11] = second compound 0.1 µM, first compound 3.16 µM
# [12] = second compound 0.1 µM, first compound 10 µM
# [13] = second compound 0.316 µM, first compound 0.0316 µM
# [14] = second compound 0.316 µM, first compound 0.1 µM
# [15] = second compound 0.316 µM, first compound 0.316 µM
# [16] = second compound 0.316 µM, first compound 1 µM
# [17] = second compound 0.316 µM, first compound 3.16 µM
# [18] = second compound 0.316 µM, first compound 10 µM
# [19] = second compound 1 µM, first compound 0.0316 µM
# [20] = second compound 1 µM, first compound 0.1 µM
# [21] = second compound 1 µM, first compound 0.316 µM
# [22] = second compound 1 µM, first compound 1 µM
# [23] = second compound 1 µM, first compound 3.16 µM
# [24] = second compound 1 µM, first compound 10 µM
# [25] = second compound 3.16 µM, first compound 0.0316 µM
# [26] = second compound 3.16 µM, first compound 0.1 µM
# [27] = second compound 3.16 µM, first compound 0.316 µM
# [28] = second compound 3.16 µM, first compound 1 µM
# [29] = second compound 3.16 µM, first compound 3.16 µM
# [30] = second compound 3.16 µM, first compound 10 µM
# [31] = second compound 10 µM, first compound 0.0316 µM
# [32] = second compound 10 µM, first compound 0.1 µM
# [33] = second compound 10 µM, first compound 0.316 µM
# [34] = second compound 10 µM, first compound 1 µM
# [35] = second compound 10 µM, first compound 3.16 µM
# [36] = second compound 10 µM, first compound 10 µM
# 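Further: spheroids exposed to agents for 7 days before readout.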
# 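Wherever viability, T/C is given: percent viability relative to DMSO vehicle control taken as 100%.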
compound,measurement,setting,value
COc1cccc2c1C(=O)c1c(O)c3c(c(O)c1C2=O)CC(O)(C(=O)CO)CC3OC1CC(N)C(O)C(C)O1 (stereo not drawn) + CN(C)c1ccc(Nc2c3ccc(NC(=O)CCN4CCCC4)cc3nc3cc(NC(=O)CCN4CCCC4)ccc23)cc1,IC50,second compound 0.0316 µM,95.5 nM
same,IC50,second compound 0.1 µM,94.5 nM
same,IC50,second compound 0.316 µM,93.4 nM
same,IC50,second compound 1 µM,96.4 nM
same,IC50,second compound 3.16 µM,91 nM
same,IC50,second compound 10 µM,95.7 nM
same,"viability, T/C",[1],80.9%
same,"viability, T/C",[2],39.6%
same,"viability, T/C",[3],41%
same,"viability, T/C",[4],10%
same,"viability, T/C",[5],0.59%
same,"viability, T/C",[6],0.64%
same,"viability, T/C",[7],79.7%
same,"viability, T/C",[8],43.4%
same,"viability, T/C",[9],35.5%
same,"viability, T/C",[10],10.1%
same,"viability, T/C",[11],0.47%
same,"viability, T/C",[12],0.28%
same,"viability, T/C",[13],82.7%
same,"viability, T/C",[14],37.8%
same,"viability, T/C",[15],40.4%
same,"viability, T/C",[16],9.85%
same,"viability, T/C",[17],0.54%
same,"viability, T/C",[18],0.34%
same,"viability, T/C",[19],83.1%
same,"viability, T/C",[20],38.4%
same,"viability, T/C",[21],40.9%
same,"viability, T/C",[22],10.8%
same,"viability, T/C",[23],0.57%
same,"viability, T/C",[24],0.34%
same,"viability, T/C",[25],91.9%
same,"viability, T/C",[26],37.6%
same,"viability, T/C",[27],33.8%
same,"viability, T/C",[28],9.5%
same,"viability, T/C",[29],0.71%
same,"viability, T/C",[30],0.36%
same,"viability, T/C",[31],85.8%
same,"viability, T/C",[32],39%
same,"viability, T/C",[33],37.6%
same,"viability, T/C",[34],12.3%
same,"viability, T/C",[35],1%
same,"viability, T/C",[36],0.33%
Cc1cccc(N(C)C(=O)C2C(O)CCN2c2nc(C)cc(C(F)(F)F)c2C#N)c1 (stereo not drawn) + CN(C)c1ccc(Nc2c3ccc(NC(=O)CCN4CCCC4)cc3nc3cc(NC(=O)CCN4CCCC4)ccc23)cc1,IC50,second compound 0.0316 µM,> 10000 nM
same,IC50,second compound 0.1 µM,> 10000 nM
same,IC50,second compound 0.316 µM,> 10000 nM
same,IC50,second compound 1 µM,> 10000 nM
same,IC50,second compound 3.16 µM,> 10000 nM
same,IC50,second compound 10 µM,4030 nM
same,"viability, T/C",[1],101%
same,"viability, T/C",[2],102%
same,"viability, T/C",[3],92.5%
same,"viability, T/C",[4],90%
same,"viability, T/C",[5],92.8%
same,"viability, T/C",[6],85.4%
same,"viability, T/C",[7],89.3%
same,"viability, T/C",[8],109%
same,"viability, T/C",[9],90.1%
same,"viability, T/C",[10],112%
same,"viability, T/C",[11],93.3%
same,"viability, T/C",[12],79.9%
same,"viability, T/C",[13],99.3%
same,"viability, T/C",[14],96.8%
same,"viability, T/C",[15],90.6%
same,"viability, T/C",[16],93.1%
same,"viability, T/C",[17],99.4%
same,"viability, T/C",[18],90.8%
same,"viability, T/C",[19],95.5%
same,"viability, T/C",[20],88.2%
same,"viability, T/C",[21],90.5%
same,"viability, T/C",[22],83.7%
same,"viability, T/C",[23],94%
same,"viability, T/C",[24],81%
same,"viability, T/C",[25],99.6%
same,"viability, T/C",[26],99.3%
same,"viability, T/C",[27],94.3%
same,"viability, T/C",[28],91.8%
same,"viability, T/C",[29],111%
same,"viability, T/C",[30],82.1%
same,"viability, T/C",[31],97.7%
same,"viability, T/C",[32],88.7%
same,"viability, T/C",[33],85.7%
same,"viability, T/C",[34],69.4%
same,"viability, T/C",[35],52.2%
same,"viability, T/C",[36],40.2%
Nc1ccn(C2OC(CO)C(O)C2(F)F)c(=O)n1 (stereo not drawn) + CN(C)c1ccc(Nc2c3ccc(NC(=O)CCN4CCCC4)cc3nc3cc(NC(=O)CCN4CCCC4)ccc23)cc1,IC50,second compound 0.0316 µM,< 31.6 nM
same,IC50,second compound 0.1 µM,< 31.6 nM
same,IC50,second compound 0.316 µM,< 31.6 nM
same,IC50,second compound 1 µM,< 31.6 nM
same,IC50,second compound 3.16 µM,< 31.6 nM
same,IC50,second compound 10 µM,< 31.6 nM
same,"viability, T/C",[1],11.1%
same,"viability, T/C",[2],6.76%
same,"viability, T/C",[3],7.53%
same,"viability, T/C",[4],6.63%
same,"viability, T/C",[5],5.22%
same,"viability, T/C",[6],3.38%
same,"viability, T/C",[7],11.5%
same,"viability, T/C",[8],7.05%
same,"viability, T/C",[9],7.75%
same,"viability, T/C",[10],7.5%
same,"viability, T/C",[11],5.74%
same,"viability, T/C",[12],4.58%
same,"viability, T/C",[13],10.2%
same,"viability, T/C",[14],7.22%
same,"viability, T/C",[15],7.51%
same,"viability, T/C",[16],6.86%
same,"viability, T/C",[17],5.17%
same,"viability, T/C",[18],3.32%
same,"viability, T/C",[19],10.5%
same,"viability, T/C",[20],5.85%
same,"viability, T/C",[21],7.62%
same,"viability, T/C",[22],8.41%
same,"viability, T/C",[23],6.53%
same,"viability, T/C",[24],3.73%
same,"viability, T/C",[25],8.54%
same,"viability, T/C",[26],7.05%
same,"viability, T/C",[27],8.46%
same,"viability, T/C",[28],8.5%
same,"viability, T/C",[29],6.92%
same,"viability, T/C",[30],3.39%
same,"viability, T/C",[31],10.7%
same,"viability, T/C",[32],9.04%
same,"viability, T/C",[33],8.83%
same,"viability, T/C",[34],8.64%
same,"viability, T/C",[35],6.59%
same,"viability, T/C",[36],4.48%
O=c1[nH]cc(F)c(=O)[nH]1 + CN(C)c1ccc(Nc2c3ccc(NC(=O)CCN4CCCC4)cc3nc3cc(NC(=O)CCN4CCCC4)ccc23)cc1,IC50,second compound 0.0316 µM,2120 nM
same,IC50,second compound 0.1 µM,2450 nM
same,IC50,second compound 0.316 µM,2400 nM
same,IC50,second compound 1 µM,2700 nM
same,IC50,second compound 3.16 µM,2510 nM
same,IC50,second compound 10 µM,2690 nM
same,"viability, T/C",[1],112%
same,"viability, T/C",[2],104%
same,"viability, T/C",[3],119%
same,"viability, T/C",[4],73.4%
same,"viability, T/C",[5],44.2%
same,"viability, T/C",[6],30.7%
same,"viability, T/C",[7],101%
same,"viability, T/C",[8],102%
same,"viability, T/C",[9],94.3%
same,"viability, T/C",[10],84.3%
same,"viability, T/C",[11],39.9%
same,"viability, T/C",[12],29.3%
same,"viability, T/C",[13],102%
same,"viability, T/C",[14],106%
same,"viability, T/C",[15],97.1%
same,"viability, T/C",[16],78.7%
same,"viability, T/C",[17],40.7%
same,"viability, T/C",[18],29.6%
same,"viability, T/C",[19],99.5%
same,"viability, T/C",[20],101%
same,"viability, T/C",[21],108%
same,"viability, T/C",[22],83%
same,"viability, T/C",[23],45.7%
same,"viability, T/C",[24],31.6%
same,"viability, T/C",[25],91.2%
same,"viability, T/C",[26],96.7%
same,"viability, T/C",[27],102%
same,"viability, T/C",[28],74.1%
same,"viability, T/C",[29],45.4%
same,"viability, T/C",[30],29%
same,"viability, T/C",[31],102%
same,"viability, T/C",[32],95.9%
same,"viability, T/C",[33],100%
same,"viability, T/C",[34],80.5%
same,"viability, T/C",[35],45.3%
same,"viability, T/C",[36],31.9%
